Measured values taken from patent US8530490B2, “Uracil compound or salt thereof having human deoxyuridine triphosphatase inhibitory activity” (Taiho Pharmaceutical Co., Ltd., priority 2008, dated 2013).

Target: human dUTPase (Homo sapiens (Human), UniProt P33316)
Experiment: Human dUTPase inhibitory effect: production of [5-3H]dUMP from [5-3H]dUTP, measured by HPLC with flow scintillation
Format: biochemical
Details: [5-3H]dUMP production from [5-3H]dUTP, 37° C., 15 minutes
Experimental: The inhibitory activity of the compound of the present invention against human dUTPase was determined by measuring the production of [5-^3H]deoxyuridine monophosphate (hereinafter, referred to as [5-^3H]dUMP) from [5-^3H]deoxyuridine triphosphate (hereinafter, referred to as [5-^3H]dUTP) according to a method shown below.
Specifically, 0.2 mL in total of a solution containing 0.02 mL of 1 μM dUTP (including 588 Bq/mL [5-3H]dUTP), 0.05 mL of a 0.2 M Tris buffer solution (pH 7.4), 0.05 mL of 16 mM magnesium chloride, 0.02 mL of 20 mM 2-mercaptoethanol, 0.02 mL of a 1% aqueous solution of fetal bovine serum-derived albumin, 0.02 mL of varying concentrations of test compound solutions or pure water as a control, and 0.02 mL of a solution of human dUTPase (expressed using E. coli and purified) was reacted at 37° C. for 15 minutes. Immediately after the reaction, the solution was heated at 100° C. for 1 minute to terminate the reaction, followed by centrifugation at 15000 rpm for 2 minutes. An aliquot (150 μL) of the supernatant thus obtained by centrifugation was analyzed using an Atlantis dC18 column (manufactured by Waters Corp., 4.6×250 mm) and a high-performance liquid chromatograph (manufactured by Shimadzu Corp., Prominence). Elution was performed at a flow rate of 0.8 mL/min for 30 minutes by a concentration gradient from a 4:6 mixed solution of a mobile phase A (10 mM potassium dihydrogen phosphate (pH 6.7), 10 mM tetrabutylammonium, and 0.25% methanol) and a mobile phase B (50 mM potassium dihydrogen phosphate (pH 6.7), 5.6 mM tetrabutylammonium, and 30% methanol) to the mobile phase B. The eluate was mixed with a scintillator (manufactured by PerkinElmer Co., Ltd., Ultima-Flo AP) at a 1:2 ratio, and the radioactivity of the produced [5-^3H]dUMP (RT 10.2 min) was measured using Radiomatic Flow Scintillation Analyzer (manufactured by PerkinElmer Co., Ltd., 525TR).
The inhibitory activity of the test compound was determined according to the formula shown below.

Sequence of human dUTPase (P33316 94-252): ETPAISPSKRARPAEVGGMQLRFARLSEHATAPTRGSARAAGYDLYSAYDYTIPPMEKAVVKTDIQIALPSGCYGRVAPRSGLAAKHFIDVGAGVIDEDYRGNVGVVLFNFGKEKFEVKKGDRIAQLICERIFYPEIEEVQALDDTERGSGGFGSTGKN

Compound	IC50
O=c1ccn(COCCOC(c2ccccc2)(c2ccccc2)c2ccccc2)c(=O)[nH]1 [Comparative Example 1, reference compound]	185000 nM
CN(C(CCn1ccc(=O)[nH]c1=O)C(=O)NO)S(=O)(=O)c1ccc(Oc2ccccc2)cc1 (stereo not shown) [Comparative Example 2, 4-(2,4-Dioxo-3,4-dihydropyrimidin-1(2H)-yl)-N-hydroxy-2-(N-methyl-4-phenoxyphenylsulfonamide)butanamide, reference compound]	97200 nM
O=c1ccn(COCCCS(=O)(=O)NCc2cccc(OCC3CC3)c2)c(=O)[nH]1 [Example 1, N-(3-(cyclopropylmethoxy)benzyl)-3-((2,4-dioxo-3,4-dihydropyrimidin-1(2H)-yl)methoxy)propane-1-sulfonamide]	330 nM
C[C@@H](NS(=O)(=O)CCCOCn1ccc(=O)[nH]c1=O)c1cccc(OCC(C)(C)O)c1 [Example 2, (R)-3-((2,4-dioxo-3,4-dihydropyrimidin-1(2H)-yl)methoxy)-N-(1-(3-(2-hydroxy-2-methylpropoxy)phenyl)ethyl)propane-1-sulfonamide]	1870 nM
CC[C@@](O)(CNS(=O)(=O)CCCOCn1ccc(=O)[nH]c1=O)c1ccc(F)c(OC2CCCC2)c1 [Example 3, (S)—N-(2-(3-(cyclopentyloxy)-4-fluorophenyl)-2-hydroxybutyl)-3-((2,4-dioxo-3,4-dihydropyrimidin-1(2H)-yl)methoxy)propane-1-sulfonamide]	870 nM
O=c1ccn(COCCCS(=O)(=O)NCc2cccc(OC3CCC3)c2)c(=O)[nH]1 [Example 4, N-(3-cyclobutoxybenzyl)-3-((2,4-dioxo-3,4-dihydropyrimidin-1(2H)-yl)methoxy)propane-1-sulfonamide]	610 nM
C[C@@H](NS(=O)(=O)CCCOCn1ccc(=O)[nH]c1=O)c1cccc(O[C@@H]2CCOC2)c1 [Example 6, 3-((2,4-dioxo-3,4-dihydropyrimidin-1(2H)-yl)methoxy)-N—((R)-1-(3-((R)-tetrahydrofuran-3-yloxy)phenyl)ethyl)propane-1-sulfonamide]	460 nM
O=c1ccn(COCCCS(=O)(=O)NCc2ccc(F)c(OCC3CC3)c2)c(=O)[nH]1 [Example 7, N-(3-(cyclopropylmethoxy)-4-fluorobenzyl)-3-((2,4-dioxo-3,4-dihydropyrimidin-1(2H)-yl)methoxy)propane-1-sulfonamide]	640 nM
CC(NS(=O)(=O)CCCOCn1ccc(=O)[nH]c1=O)c1cccc(OCC2CC2)c1 (stereo not shown) [Example 11, N-(1-(3-(cyclopropylmethoxy)phenyl)ethyl)-3-((2,4-dioxo-3,4-dihydropyrimidin-1(2H)-yl)methoxy)propane-1-sulfonamide]	490 nM
O=c1ccn(COCCCS(=O)(=O)NCc2cccc(SCC3CC3)c2)c(=O)[nH]1 [Example 12, N-(3-(cyclopropylmethylthio)benzyl)-3-((2,4-dioxo-3,4-dihydropyrimidin-1(2H)-yl)methoxy)propane-1-sulfonamide]	2830 nM
C[C@@H](NS(=O)(=O)CCCOCn1ccc(=O)[nH]c1=O)c1cccc(OC2CC2)c1 [Example 13, (R)—N-(1-(3-cyclopropoxyphenyl)ethyl)-3-((2,4-dioxo-3,4-dihydropyrimidin-1(2H)-yl)methoxy)propane-1-sulfonamide]	330 nM
O=c1ccn(COCCCS(=O)(=O)NC(c2ccccc2)c2cccc(OC(F)(F)C(F)F)c2)c(=O)[nH]1 (stereo not shown) [Example 15, 3-((2,4-dioxo-3,4-dihydropyrimidin-1(2H)-yl)methoxy)-N-(phenyl(3-(1,1,2,2-tetrafluoroethoxy)phenyl)methyl)propane-1-sulfonamide]	940 nM
CC(C)COc1cccc(C(NS(=O)(=O)CCCOCn2ccc(=O)[nH]c2=O)c2ccccc2)c1 (stereo not shown) [Example 16, 3-((2,4-dioxo-3,4-dihydropyrimidin-1(2H)-yl)methoxy)-N-((3-isobutoxyphenyl)(phenyl)methyl)propane-1-sulfonamide]	600 nM
CC[C@H](C)COc1cccc(C(NS(=O)(=O)CCCOCn2ccc(=O)[nH]c2=O)c2ccccc2)c1 (stereo partly drawn) [Example 18, 3-((2,4-dioxo-3,4-dihydropyrimidin-1(2H)-yl)methoxy)-N-((3-((S)-2-methylbutoxy)phenyl) (phenyl)methyl)propane-1-sulfonamide]	1650 nM
O=c1ccn(COCCCS(=O)(=O)NCc2cccc(OC3CCCC3)c2)c(=O)[nH]1 [Example 21, N-(3-(cyclopentyloxy)benzyl)-3-((2,4-dioxo-3,4-dihydropyrimidin-1(2H)-yl)methoxy)propane-1-sulfonamide]	270 nM
C[C@@H](NS(=O)(=O)CCCOCn1ccc(=O)[nH]c1=O)c1cccc(OCC2CC2)c1 [Example 23, (R)—N-(1-(3-(cyclopropylmethoxy)phenyl)ethyl)-3-((2,4-dioxo-3,4-dihydropyrimidin-1(2H)-yl)methoxy)propane-1-sulfonamide]	50 nM
CC(C)(NS(=O)(=O)CCCOCn1ccc(=O)[nH]c1=O)c1cccc(OCC2CC2)c1 [Example 26, N-(2-(3-(cyclopropylmethoxy)phenyl)propan-2-yl)-3-((2,4-dioxo-3,4-dihydropyrimidin-1(2H)-yl)methoxy)propane-1-sulfonamide]	520 nM

More lines, in order of falling IC50, values ahead:

IC50	Compound
240 nM	O=c1ccn(COCCCS(=O)(=O)NC(c2ccc(F)cc2)c2ccc(F)c(OCC3CC3)c2)c(=O)[nH]1 (stereo not shown) [Example 19, N-((3-(cyclopropylmethoxy)-4-fluorophenyl)(4-fluorophenyl)methyl)-3-((2,4-dioxo-3,4-dihydropyrimidin-1(2H)-yl)methoxy)propane-1-sulfonamide]
210 nM	CCC(CC)(NS(=O)(=O)CCCOCn1ccc(=O)[nH]c1=O)c1cccc(OCC2CC2)c1 [Example 14, N-(3-(3-(cyclopropylmethoxy)phenyl)pentan-3-yl)-3-((2,4-dioxo-3,4-dihydropyrimidin-1(2H)-yl)methoxy)propane-1-sulfonamide]
210 nM	O=c1ccn(COCCCS(=O)(=O)NC(c2cccc(OCC3CC3)c2)c2cccc(OCC3CC3)c2)c(=O)[nH]1 [Example 17, N-(bis(3-(cyclopropylmethoxy)phenyl)methyl)-3-((2,4-dioxo-3,4-dihydropyrimidin-1(2H)-yl)methoxy)propane-1-sulfonamide]
190 nM	CCC(CC)(NS(=O)(=O)CCCOCn1ccc(=O)[nH]c1=O)c1ccc(F)c(OCC2CC2)c1 [Example 20, N-(3-(3-(cyclopropylmethoxy)-4-fluorophenyl)pentan-3-yl)-3-((2,4-dioxo-3,4-dihydropyrimidin-1(2H)-yl)methoxy)propane-1-sulfonamide]
160 nM	O=c1ccn(COCCCS(=O)(=O)NC(c2ccccc2)c2cccc(OCC3CC3)c2)c(=O)[nH]1 (stereo not shown) [Example 10, N-((3-(cyclopropylmethoxy)phenyl)(phenyl)methyl)-3-((2,4-dioxo-3,4-dihydropyrimidin-1(2H)-yl)methoxy)propane-1-sulfonamide]
100 nM	CC(C)C(NS(=O)(=O)CCCOCn1ccc(=O)[nH]c1=O)c1ccc(F)c(OCC2CC2)c1 (stereo not shown) [Example 25, N-(1-(3-(cyclopropylmethoxy)-4-fluorophenyl)-2-methylpropyl)-3-((2,4-dioxo-3,4-dihydropyrimidin-1(2H)-yl)methoxy)propane-1-sulfonamide]
90 nM	C[C@@H](NS(=O)(=O)CCCOCn1ccc(=O)[nH]c1=O)c1ccc(F)c(OCC2CC2)c1 [Example 8, (R)—N-(1-(3-(cyclopropylmethoxy)-4-fluorophenyl)ethyl)-3-((2,4-dioxo-3,4-dihydropyrimidin-1(2H)-yl)methoxy)propane-1-sulfonamide]
60 nM	C[C@@H](NS(=O)(=O)CCCOCn1ccc(=O)[nH]c1=O)c1cccc(OC2CCCC2)c1 [Example 5, (R)—N-(1-(3-(cyclopentyloxy)phenyl)ethyl)-3-((2,4-dioxo-3,4-dihydropyrimidin-1(2H)-yl)methoxy)propane-1-sulfonamide]
40 nM	CC(C)[C@@H](NS(=O)(=O)CCCOCn1ccc(=O)[nH]c1=O)c1ccc(F)c(OCC2CC2)c1 [Example 9, (R)—N-(1-(3-(cyclopropylmethoxy)-4-fluorophenyl)-2-methylpropyl)-3-((2,4-dioxo-3,4-dihydropyrimidin-1(2H)-yl)methoxy)propane-1-sulfonamide]
40 nM	C[C@@H](NS(=O)(=O)CCCOCn1ccc(=O)[nH]c1=O)c1ccc(F)c(OC2CCCC2)c1 [Example 24, (R)—N-(1-(3-(cyclopentyloxy)-4-fluorophenyl)ethyl)-3-((2,4-dioxo-3,4-dihydropyrimidin-1(2H)-yl)methoxy)propane-1-sulfonamide]
30 nM	CC[C@@H](NS(=O)(=O)CCCOCn1ccc(=O)[nH]c1=O)c1ccc(F)c(OCC2CC2)c1 [Example 22, (R)—N-(1-(3-(cyclopropylmethoxy)-4-fluorophenyl)propyl)-3-((2,4-dioxo-3,4-dihydropyrimidin-1(2H)-yl)methoxy)propane-1-sulfonamide]
